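Following 48 hours of exposure in 96-well plates, responses at five concentrations were used to interpolate endpoints linearly. Abbreviation: GI50, concentration required for 50% inhibition of growth. Definition used: TGI = concentration required for complete inhibition of growth.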
Assays:
Assay in all cases: DTP human tumour cell line panel, 48 h; in the data active means GI50 below about 0.43 µM; inactive means the rest
[1] = tested on: NCI-H522 lung
[2] = tested on: OVCAR-8 ovarian
[3] = tested on: LXFL 529 NSCLC
[4] = tested on: IGROV1 ovarian
[5] = tested on: U251 CNS
[6] = tested on: SN12C renal
[7] = tested on: A549 NSCLC
[8] = tested on: EKVX NSCLC
[9] = tested on: M19-MEL melanoma
[10] = tested on: HS 578T breast

COC(=O)C1=CO[C@@H](OC2CC(CO)C(O)C(O)C2O)[C@@H]2[C@@H](C)[C@@H](OC(=O)/C=C/c3ccccc3)[C@@H](O)[C@H]12 (some centres not stated) (tested in a mixture with another compound)
> 100 µM: TGI [1] | TGI [2] | TGI [3] | TGI [4] | TGI [5] | TGI [6] | TGI [7] | TGI [8] | TGI [9]

Nc1ncnc2c1ncn2C1OC(CSCC(F)(F)F)C(O)C1O (configuration not stated)
> 100 µM: TGI [1] | TGI [2] | TGI [3] | TGI [4] | TGI [5] | TGI [6] | TGI [7] | TGI [8] | TGI [9]

CN(C(=O)/C=C/c1ccccc1)C1C2CN3CCC(O2)C13 (configuration not stated)
> 100 µM: TGI [1] | TGI [2] | TGI [3] | TGI [4] | TGI [5] | TGI [6] | TGI [7] | TGI [8]

Cc1c(/C=N/NC(=O)c2ccccc2O)c(=O)n(-c2ccccc2)n1C
> 100 µM: TGI [1] | TGI [2] | TGI [3] | TGI [4] | TGI [5] | TGI [6] | TGI [7] | TGI [8] | TGI [9]

O=c1ncccn1[C@@H]1O[C@H](CO)[C@H](O)C1O (some centres not stated)
> 100 µM: TGI [1] | TGI [2] | TGI [3] | TGI [4] | TGI [5] | TGI [6] | TGI [7] | TGI [8] | TGI [9]

COC(=O)/C(=N\NC(C)(C)C)C(C(=O)OC)C(=O)C(=O)Nc1cc(Cl)ccc1Cl (configuration not stated)
> 100 µM: TGI [1] | TGI [2] | TGI [3] | TGI [4] | TGI [5] | TGI [6] | TGI [7] | TGI [8] | TGI [9]

C[N+](C)(C)CCC(=O)CC[N+](C)(C)C
44 µM: TGI [2]
54.5 µM: TGI [9]
29.4 µM: TGI [1]
30.4 µM: TGI [3]
> 100 µM: TGI [4] | TGI [5] | TGI [7] | TGI [8]

O=C(/C=C/c1ccccc1)Oc1cccc2cccnc12
> 58.6 µM: TGI [6]
5.31 µM: TGI [1]
32.4 µM: TGI [4]
30.8 µM: TGI [5]
> 100 µM: TGI [9]
> 62.2 µM: TGI [2]
52.2 µM: TGI [3]
> 68.2 µM: TGI [8]
76.9 µM: TGI [7]

CC(=O)OCc1c2ccccc2c(C)c2c1cc(F)c1ccccc12
25.6 µM: TGI [1]
75.2 µM: TGI [4]
47.4 µM: TGI [2]
> 100 µM: TGI [3] | TGI [7] | TGI [8]
33.8 µM: TGI [6]
58.8 µM: TGI [5]

Cn1c(=O)nc2n(-c3ccc(O)cc3)c3ccccc3nc-2c1=O
> 100 µM: TGI [1] | TGI [2] | TGI [3] | TGI [4] | TGI [5] | TGI [6] | TGI [7] | TGI [8]
81.1 µM: TGI [9]

Cc1cc2c(C)nn(Cc3ccccc3)c2c(C(=O)O)c1C
> 100 µM: TGI [2] | TGI [3] | TGI [4] | TGI [5] | TGI [6] | TGI [7] | TGI [8] | TGI [9]

CC1=C(C(=O)Nc2ccccc2C)C(c2ccc(Cl)cc2)C(C(=O)Nc2ccccc2C)=C(C)N1
> 100 µM: TGI [1] | TGI [2] | TGI [3] | TGI [4] | TGI [5] | TGI [6] | TGI [7] | TGI [8] | TGI [9]

O=C1CC(CC(=O)C2CCCCC2=O)C(=O)N1 (configuration not stated)
> 100 µM: TGI [1] | TGI [2] | TGI [3] | TGI [4] | TGI [5] | TGI [6] | TGI [7] | TGI [8] | TGI [9]

IC[P+]1(c2ccccc2)CCCC1
60.8 µM: TGI [6]
46.1 µM: TGI [8]
21.6 µM: TGI [1]
29.4 µM: TGI [5]
81 µM: TGI [9]
> 100 µM: TGI [2] | TGI [3] | TGI [4] | TGI [7]

Cc1nc(C(N)=O)c(N)n1CCN1CCN(C(=O)CCCCCCCCCCNC2N=CNc3nc[nH]c32)CC1 (configuration not stated)
> 100 µM: TGI [2] | TGI [4] | TGI [5] | TGI [6] | TGI [7] | TGI [9]
71.6 µM: TGI [3]

O=C(COc1ccccc1Cl)N1N=C(c2ccc(Cl)cc2)CC1(O)c1ccccc1 (configuration not stated)
> 100 µM: TGI [1] | TGI [2] | TGI [3] | TGI [4] | TGI [5] | TGI [6] | TGI [7] | TGI [9]

O=c1cc(-c2cccs2)[nH]c2cc3c(cc12)OCO3
> 60.2 µM: TGI [5]
6.92 µM: TGI [1]
> 100 µM: TGI [3] | TGI [6] | TGI [7] | TGI [8] | TGI [9]
27.7 µM: TGI [2]
> 53.4 µM: TGI [4]

CC(=O)c1c(O)c(C)c(O)c(Cc2c(O)c3c(c(C(=O)/C=C/c4ccccc4)c2O)OC(C)(C)C=C3)c1O
14.5 µM: TGI [5]
> 100 µM: TGI [10]
11.5 µM: TGI [1]
16.3 µM: TGI [4]
12.9 µM: TGI [8]
5.13 µM: TGI [7]
9.09 µM: TGI [6]
23.7 µM: TGI [2]

COC(=O)c1sc(C(=O)OC)c2c1CS(=O)C2
> 100 µM: TGI [1] | TGI [2] | TGI [3] | TGI [4] | TGI [5] | TGI [7] | TGI [8] | TGI [9]

O=C1C[C@H]2CCCN2[C@@H](c2ccccc2)C1
> 100 µM: TGI [1] | TGI [2] | TGI [3] | TGI [4] | TGI [5] | TGI [6] | TGI [7] | TGI [8] | TGI [9]

CCOC(=O)Cc1nc2ccc3c(c2[nH]c1=O)C(=O)c1ccccc1C3=O
28.5 µM: TGI [8]
> 100 µM: TGI [1] | TGI [2] | TGI [3] | TGI [4] | TGI [5] | TGI [6] | TGI [7] | TGI [9]

CCc1cccc(C)c1NS(=O)(=O)c1ccccc1
> 100 µM: TGI [2] | TGI [3] | TGI [4] | TGI [5] | TGI [7] | TGI [8] | TGI [9]

Cc1c2cnccc2c(C)c2c1c1cc(C#N)ccc1n2C
active: GI50 [1] 0.167 µM | GI50 [2] 0.103 µM | GI50 [4] 0.14 µM | GI50 [5] 0.204 µM | GI50 [6] 0.149 µM | GI50 [7] 0.1 µM | GI50 [8] 0.219 µM | GI50 [10] 0.241 µM
0.895 µM: TGI [7]
1.14 µM: TGI [6]
1.12 µM: TGI [5]
1.1 µM: TGI [4]
1.96 µM: TGI [2]
0.817 µM: TGI [1]
1.3 µM: TGI [10]
0.624 µM: TGI [8]

O=C(O)CCNS(=O)(=O)c1ccc(NC(=O)c2ccccc2)cc1
> 100 µM: TGI [1] | TGI [2] | TGI [3] | TGI [4] | TGI [5] | TGI [6] | TGI [7] | TGI [8] | TGI [9]

Source: PubChem BioAssay (NCI)
